Compound: N#Cc1cc(Cl)nc(Cl)c1
- melting point: 96 to 97 °C

Compound: N[C@@H](Cc1ccc(OCc2ccccc2)cc1)C(=O)O
- melting point: 259 °C

Compound: COc1cc(Cl)c(OC)cc1N
- melting point: 120 °C

Compound: Cc1cc(C)c(Br)c(C)c1Br
- melting point: 65.5 °C

Compound: Cc1nn(C(=O)c2ccncc2)c2c1nnc1ccc(Cl)cc12
- melting point: 162 °C

Compound: COC(=O)NNC(=O)OC
- melting point: 129 to 131 °C

Compound: Cc1ccc(-c2nc3ccc(C)cn3c2CC(=O)N(C)C)cc1
- melting point: 196 °C

Compound: ClCc1ccccc1Cn1cncn1
- melting point: 52 to 57 °C

Compound: Clc1ccc(C2C3CCc4ccccc4C3=NN2c2ccccc2)cc1 (stereo not given)
- melting point: 168 to 170 °C

Compound: CC(C)(C)OC(=O)N1CCN(c2cc(C#N)ccn2)CC1
- melting point: 127 to 129 °C

Compound: O=C(OCC(=O)N1CCC(O)CC1)c1ccccc1
- melting point: 122 °C

Compound: CCOCCOC(=O)C=Cc1ccc(OC)cc1
- melting point: -25 °C

Compound: CCOc1c(NCc2ccccc2)c(=O)c1=O
- melting point: 68 to 72 °C

Compound: C=COC(C)C
- melting point: -140 °C

Compound: CC(C)(c1ccc(OCC2CO2)cc1)c1ccc(OCC2CO2)cc1 (stereo not given)
- melting point: 10 °C

Compound: NCc1ccc(N2CCCC2)cc1
- melting point: 37 to 44 °C

Compound: Cc1cc(C(F)(F)F)n2nc(N)c(/N=N/c3ccc(Cl)cc3)c2n1
- melting point: 250 °C

Compound: CC(=O)c1ccc(F)c(Br)c1
- melting point: 56 °C

Compound: C[C@]12CCC(=O)C[C@@H]1CC[C@@H]1[C@@H]2CC[C@]2(C)C(=O)C=C[C@@H]12
- melting point: 172 to 173 °C

Compound: Cc1c(Cl)cc([N+](=O)[O-])cc1Cl
- melting point: 63 to 64 °C

Compound: Fc1cnccc1I
- melting point: 88 °C

Compound: N#C/C(=N\Nc1cccc(C(=O)O)c1)c1nc2ccccc2s1
- melting point: 200 °C

Compound: N=c1sc(C(=O)c2cccs2)nn1-c1ccccc1
- melting point: 134 °C

Compound: OCCN(CCO)CCc1ccc(COc2ccccc2)cc1
- melting point: 83 °C

Compound: O=C(O)c1cc(Cl)ccc1C(F)(F)F
- melting point: 86 °C

Compound: CCC1CCCCN1C(=O)COC(=O)c1ccccc1 (stereo not given)
- melting point: 54.5 °C

Compound: COC(=O)c1sccc1Oc1ccc(C(F)(F)F)cc1[N+](=O)[O-]
- melting point: 112 to 113 °C

Compound: CCCCCCCCCCCCOC(=O)CCSCCC(=O)OCCCCCCCCCCCC
- melting point: 41 °C

Compound: COC(=O)C1Cc2ccccc2N1C(=O)OC(C)(C)C (stereo not given)
- melting point: 73 to 75 °C

Compound: COc1ccc(NC(=O)c2ccccc2)cc1
- melting point: 153 °C

Compound: O=C(O)C(c1ccc(Cl)cc1)c1ccc(Cl)cc1
- melting point: 168 °C

Compound: Cc1ccc(NC(=O)CCC2C(=O)C3(C)CCC2C3(C)C)cc1 (stereo not given)
- melting point: 114 °C

Compound: Cc1ccc(Cl)c(CO)c1F
- melting point: 57 °C

Compound: CC1(C)CC(C(N)=O)C(C)(C)N1 (stereo not given)
- melting point: 129 to 131 °C

Compound: C=CCC(C(=O)NC(N)=O)C(C)C (stereo not given)
- melting point: 194 °C

Compound: Cc1c(F)ccc(C(=O)O)c1Cl
- melting point: 188 °C

Compound: Cc1ccc(F)c(C#N)c1Cl
- melting point: 59 °C

Compound: FC(F)(F)C1(F)C(F)(F)C(F)(F)C(F)(F)C2(F)C(F)(F)C(F)(F)C(F)(F)C(F)(F)C12F (stereo not given)
- melting point: -70 °C

Compound: Cn1c(=O)c(C2=NNC(=O)C2=NNc2ccc([N+](=O)[O-])cc2)c(O)c2ccccc21
- melting point: 300 °C

Compound: S=C=Nc1ccc(Cl)cc1Cl
- melting point: 38 °C

Compound: O=C(O)CCCCCCC(=O)c1ccccc1
- melting point: 81 °C

Compound: Nc1ccccc1N1CCNCC1
- melting point: 115 °C

Compound: O=C(O)C(F)(F)c1ccccc1
- melting point: 75 °C

Compound: COC(=O)c1ccccc1NC(=S)NNC(=O)C(=O)c1c[nH]c2ccccc12
- melting point: 283 °C

Compound: C1CSCSC1
- melting point: 54 °C

Compound: NS(=O)(=O)c1ccc(Oc2ccccc2)cc1
- melting point: 131 °C

Compound: CCOc1cc(Oc2ccc(C(F)(F)F)cc2Cl)ccc1[N+](=O)[O-]
- melting point: 85.3 °C

Compound: COCCOC1=C(N2CC2)C(=O)C(OCCOC)=C(N2CC2)C1=O
- melting point: 80 °C

Compound: O=C=Nc1cccc2c(N=C=O)cccc12
- melting point: 130 °C

Compound: O=C1C2C3C=CC(C3)C2C(=O)N1O (stereo not given)
- melting point: 167 to 170 °C

Compound: Cc1ccc(O)c([N+](=O)[O-])n1
- melting point: 107 °C

Compound: COC(=O)c1ccc(C)cc1C
- melting point: -2 °C

Compound: CC(C)C(C)CCC(C)C1CCC2C3CC=C4CC(O)CCC4(C)C3CCC12C (stereo not given)
- melting point: 158 °C

Compound: O=C(O)C(CCBr)(c1ccccc1)c1ccccc1
- melting point: 135 to 137 °C

Compound: O=C(O)CCC(=O)Nc1ccccc1
- melting point: 148 °C

Compound: CCCc1ccccn1
- melting point: 2 °C

Compound: Cc1c(C(=O)O)[nH]c2ccccc12
- melting point: 162 to 163 °C

Compound: CC(=O)N(C)c1cccc(-c2ccc3nnc(C)n3n2)c1
- melting point: 200 to 201 °C

Compound: c1ccc2c(c1)c1ccccc1n2CC1CO1 (stereo not given)
- melting point: 110 to 112 °C

Compound: O=c1c(Br)c(Br)cnn1-c1ccccc1
- melting point: 143 to 144 °C

Compound: ClCc1cc(-c2ccco2)on1
- melting point: 47 to 49 °C

Compound: Cc1ccc2ccc(=O)oc2c1
- melting point: 128 °C

Compound: c1cc(SSc2ccncc2)ccn1
- melting point: 76 °C

Compound: Nc1c(F)cc(Br)cc1Br
- melting point: 63 °C

Compound: COC(=O)[C@]12c3ccccc3[C@]34c5ccccc5[C@H]1[C@@]32C(=O)O[C@@H]4C
- melting point: 203 °C
